Assay results reported in PubChem BioAssay (NCI).
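All cell lines were grown in 96-well plates and treated with compound for 48 hours. The concentration for full growth arrest is given as TGI.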

Columns and labels:
Assay in all cases: NCI anticancer screen, dose series, 48 h
[1] = system: 786-0 renal
[2] = system: A498 renal
[3] = system: A549 NSCLC
[4] = system: ACHN renal
[5] = system: BT-549 breast
[6] = system: CAKI-1 renal
[7] = system: CCRF-CEM leukemia
[8] = system: COLO 205 colon
[9] = system: DU-145 prostate
[10] = system: EKVX NSCLC
[11] = system: HCT-116 colon
[12] = system: HCT-15 colon
[13] = system: HL-60(TB) leukemia
[14] = system: HOP-62 NSCLC
[15] = system: HOP-92 NSCLC
[16] = system: HS 578T breast
[17] = system: HT29 colon
[18] = system: IGROV1 ovarian
[19] = system: K-562 leukemia
[20] = system: KM12 colon
[21] = system: LOX IMVI melanoma
[22] = system: M14 melanoma
[23] = system: MALME-3M melanoma
[24] = system: MCF7 breast
[25] = system: MDA-MB-231 breast
[26] = system: MDA-MB-435
[27] = system: MDA-N
[28] = system: MOLT-4 leukemia
[29] = system: NCI-H226 lung
[30] = system: NCI-H23 lung
[31] = system: NCI-H522 lung
[32] = system: NCI/ADR-RES ovarian
[33] = system: OVCAR-3 ovarian
[34] = system: OVCAR-4 ovarian
[35] = system: OVCAR-5 ovarian
[36] = system: OVCAR-8 ovarian
[37] = system: RPMI-8226 leukemia
[38] = system: RXF 393 renal
[39] = system: SF-268 CNS
[40] = system: SF-295 CNS
[41] = system: SF-539 CNS
[42] = system: SK-MEL-2 melanoma
[43] = system: SK-MEL-5 melanoma
[44] = system: SK-OV-3 ovarian
[45] = system: SN12C renal
[46] = system: SNB-19 CNS
[47] = system: SNB-75 CNS
[48] = system: SR leukemia
[49] = system: SW-620 colon
[50] = system: T-47D breast
[51] = system: TK-10 renal
[52] = system: U251 CNS
[53] = system: UACC-257 melanoma
[54] = system: UACC-62 melanoma
[55] = system: UO-31 renal

Measured: TGI

COc1ccc(-c2cc3ccccc3oc2=O)cc1OC
71 µM: [44]
> 100 µM: all other assays above
